According to patent US20120270819A1, “USE OF COMPOUNDS WITH SGLT-1/SGLT-2 INHIBITOR ACTIVITY FOR PRODUCING MEDICAMENTS FOR TREATMENT OF BONE DISEASE” (SANOFI, priority 2009, published 2012):

System: female Sprague-Dawley mature and young adult rats
Assay: Biomechanical testing: right femur 3-point bending
Assay type: in vivo, rat
Conditions: ex vivo; for Femur 3-point bending AUC / Femur 3-point bending Modulus / Femur 3-point bending Peak Load / Femur 3-point bending Stiffness / Femur 3-point bending Toughness / Femur 3-point bending Ultimate Stress: mean
Procedure: Biomechanical testing was performed using an 858 Mini Bionix Servohydraulic Test System, Model 242.03. All data was collected using TestWorks® version 3.8A for TestStar™ software, version 4.0C.
At necropsy, all specimens were cleaned of excess tissue (not scraped) and individually wrapped in gauze soaked with saline, covered with plastic film and placed in an appropriately labelled plastic bag. Bone samples were retained frozen (ca −20° C.) until subjected to the following biomechanical evaluations:
For 3-point bending, the right femur was cleaned of soft tissue, especially at the diaphysis in the area of the span.
The right femur was tested to failure in three-point bending to determine the material properties of femoral cortical bone. The marked point on the anterior side served as the upper loading point for each femur and the actuator was set at a rate of 1 mm/sec until failure occurred. Load and displacement data were collected. Peak load was determined from the resulting load versus displacement curve and converted to ultimate stress using the radius, cross-sectional moment of inertia and the span. The work to failure was determined from the area under the curve (AUC) and toughness was calculated. Approximate midspan values for stiffness were recorded (defined as the slope of the linear/elastic region of the load versus displacement curve) and modulus was calculated using the moment of inertia obtained from the pQCT data.

For COc1ccc(Cc2c(OC3OC(CO)C(F)C(O)C3O)n[nH]c2C(F)(F)F)cc1 (stereo not drawn) [Example 5 of formula II], the “Femur 3-point bending AUC, percent difference from Vehicle Control” value (Mature Adults, 10 mg/kg/day) was 13.4%, the “Femur 3-point bending Modulus, percent difference from Vehicle Control” value (Mature Adults, 10 mg/kg/day) was −0.2% and the “Femur 3-point bending Peak Load, percent difference from Vehicle Control” value (Mature Adults, 10 mg/kg/day) was 10.1%. For the same molecule, the “Femur 3-point bending Stiffness, percent difference from Vehicle Control” value (Mature Adults, 10 mg/kg/day) was 1.3%, the “Femur 3-point bending Toughness, percent difference from Vehicle Control” value (Mature Adults, 10 mg/kg/day) was 10.5% and the “Femur 3-point bending Ultimate Stress, percent difference from Vehicle Control” value (Mature Adults, 10 mg/kg/day) was 6.1%. The “Femur 3-point bending AUC” value (Mature Adults, 10 mg/kg/day) was 64.1 N-mm, the “Femur 3-point bending Modulus” value (Mature Adults, 10 mg/kg/day) was 6137.7 MPa and the “Femur 3-point bending Peak Load” value (Mature Adults, 10 mg/kg/day) was 149.8 N. The “Femur 3-point bending Stiffness” value (Mature Adults, 10 mg/kg/day) was 410.2 N/mm, the “Femur 3-point bending Toughness” value (Mature Adults, 10 mg/kg/day) was 7.8 MPa and the “Femur 3-point bending Ultimate Stress” value (Mature Adults, 10 mg/kg/day) was 200.5 MPa. For the same molecule, the “Femur 3-point bending AUC, percent difference from Vehicle Control” value (Mature Adults, 50 mg/kg/day) was 8.7%, the “Femur 3-point bending Modulus, percent difference from Vehicle Control” value (Mature Adults, 50 mg/kg/day) was 1.2% and the “Femur 3-point bending Peak Load, percent difference from Vehicle Control” value (Mature Adults, 50 mg/kg/day) was 4.5%. The “Femur 3-point bending Stiffness, percent difference from Vehicle Control” value (Mature Adults, 50 mg/kg/day) was −0.9%, the “Femur 3-point bending Toughness, percent difference from Vehicle Control” value (Mature Adults, 50 mg/kg/day) was 6.6% and the “Femur 3-point bending Ultimate Stress, percent difference from Vehicle Control” value (Mature Adults, 50 mg/kg/day) was 3.4%. The “Femur 3-point bending AUC” value (Mature Adults, 50 mg/kg/day) was 61.4 N-mm, the “Femur 3-point bending Modulus” value (Mature Adults, 50 mg/kg/day) was 6222.5 MPa and the “Femur 3-point bending Peak Load” value (Mature Adults, 50 mg/kg/day) was 142.1 N. For the same molecule, the “Femur 3-point bending Stiffness” value (Mature Adults, 50 mg/kg/day) was 401.4 N/mm, the “Femur 3-point bending Toughness” value (Mature Adults, 50 mg/kg/day) was 7.5 MPa and the “Femur 3-point bending Ultimate Stress” value (Mature Adults, 50 mg/kg/day) was 195.4 MPa. The “Femur 3-point bending AUC, percent difference from Vehicle Control” value (Young Adults, 10 mg/kg/day) was 4.1%, the “Femur 3-point bending Modulus, percent difference from Vehicle Control” value (Young Adults, 10 mg/kg/day) was 2.1% and the “Femur 3-point bending Peak Load, percent difference from Vehicle Control” value (Young Adults, 10 mg/kg/day) was 0.9%. For the same molecule, the “Femur 3-point bending Stiffness, percent difference from Vehicle Control” value (Young Adults, 10 mg/kg/day) was −0.4%, the “Femur 3-point bending Toughness, percent difference from Vehicle Control” value (Young Adults, 10 mg/kg/day) was 2.5% and the “Femur 3-point bending Ultimate Stress, percent difference from Vehicle Control” value (Young Adults, 10 mg/kg/day) was 1.3%. The “Femur 3-point bending AUC” value (Young Adults, 10 mg/kg/day) was 63.7 N-mm, the “Femur 3-point bending Modulus” value (Young Adults, 10 mg/kg/day) was 5154.1 MPa and the “Femur 3-point bending Peak Load” value (Young Adults, 10 mg/kg/day) was 97.9 N. For the same molecule, the “Femur 3-point bending Stiffness” value (Young Adults, 10 mg/kg/day) was 277.3 N/mm, the “Femur 3-point bending Toughness” value (Young Adults, 10 mg/kg/day) was 8.7 MPa and the “Femur 3-point bending Ultimate Stress” value (Young Adults, 10 mg/kg/day) was 155.8 MPa. For the same molecule, the “Femur 3-point bending AUC, percent difference from Vehicle Control” value (Young Adults, 50 mg/kg/day) was −19.9%, the “Femur 3-point bending Modulus, percent difference from Vehicle Control” value (Young Adults, 50 mg/kg/day) was 4.0% and the “Femur 3-point bending Peak Load, percent difference from Vehicle Control” value (Young Adults, 50 mg/kg/day) was −3.0%. For the same molecule, the “Femur 3-point bending Stiffness, percent difference from Vehicle Control” value (Young Adults, 50 mg/kg/day) was 2.0%, the “Femur 3-point bending Toughness, percent difference from Vehicle Control” value (Young Adults, 50 mg/kg/day) was −19.2% and the “Femur 3-point bending Ultimate Stress, percent difference from Vehicle Control” value (Young Adults, 50 mg/kg/day) was −2.3%. The “Femur 3-point bending AUC” value (Young Adults, 50 mg/kg/day) was 49.0 N-mm, the “Femur 3-point bending Modulus” value (Young Adults, 50 mg/kg/day) was 5249.6 MPa and the “Femur 3-point bending Peak Load” value (Young Adults, 50 mg/kg/day) was 94.1 N. For the same molecule, the “Femur 3-point bending Stiffness” value (Young Adults, 50 mg/kg/day) was 283.9 N/mm, the “Femur 3-point bending Toughness” value (Young Adults, 50 mg/kg/day) was 6.8 MPa and the “Femur 3-point bending Ultimate Stress” value (Young Adults, 50 mg/kg/day) was 150.2 MPa.
